{"source": "patent EP1094066A2", "about": "“Condensed heterocyclic glutamic acid derivatives as antiproliferative agents” (AGOURON PHARMACEUTICALS, INC., priority 1993, dated 1994)", "system": "L1210 murine leukemia (ATCC CCL 219) cell line", "test": "Cellular growth inhibition, MTT-tetrazolium reduction assay", "type": "cell-based", "conditions": "Mus musculus, 72 h; L1210 cells, 3 days of continuous exposure", "procedure": "Cellular growth in the presence of the compounds according to the present invention was assessed using the L1210 murine leukemia (ATCC CCL 219) cell line. The cell line was maintained in RPMI 1640 medium containing 5% heat-inactivated fetal bovine serum without antibiotics.\nWater insoluble derivatives were dissolved in DMSO and diluted to a final concentration of 0.5% solvent in cell cultures.", "data": [{"smiles": "Nc1nc2c(c(=O)[nH]1)SC(CCc1ccc(C(=O)N[C@@H](CCC(=O)O)C(=O)O)cc1)CN2", "note": "(stereo partly shown) [(14), 2-[4-[2-(2-Amino-4-oxo-4,6,7,8-tetrahydro-3H-pyrimido[5,4-b][1,4]thiazin-6-yl)-ethyl]benzoylamino)pentanedioic acid]", "values": [{"measurement": "IC50", "value": 50, "unit": "nM"}]}]}
